Test results reported in patent publication US6147100A, “Pyrrolidine derivatives having phospholipase A2 inhibitory activity” (Shionogi & Co., Ltd., priority 1997, dated 2000).

Assays:
[1] = molecular target: T1, cPLA2 (Homo sapiens, UniProt P47712); experiment: cPLA2 Inhibitory Activity; format: biochemical; details: 1-palmitoyl-2-[14C]-arachidonoyl-sn-glycero-3-phosphocholine 2.5 μM, sn-1,2-dioleoylglycerol 1.25 μM; pH 7.5, 15 min at 37° C.
T1 sequence (P47712 1-749): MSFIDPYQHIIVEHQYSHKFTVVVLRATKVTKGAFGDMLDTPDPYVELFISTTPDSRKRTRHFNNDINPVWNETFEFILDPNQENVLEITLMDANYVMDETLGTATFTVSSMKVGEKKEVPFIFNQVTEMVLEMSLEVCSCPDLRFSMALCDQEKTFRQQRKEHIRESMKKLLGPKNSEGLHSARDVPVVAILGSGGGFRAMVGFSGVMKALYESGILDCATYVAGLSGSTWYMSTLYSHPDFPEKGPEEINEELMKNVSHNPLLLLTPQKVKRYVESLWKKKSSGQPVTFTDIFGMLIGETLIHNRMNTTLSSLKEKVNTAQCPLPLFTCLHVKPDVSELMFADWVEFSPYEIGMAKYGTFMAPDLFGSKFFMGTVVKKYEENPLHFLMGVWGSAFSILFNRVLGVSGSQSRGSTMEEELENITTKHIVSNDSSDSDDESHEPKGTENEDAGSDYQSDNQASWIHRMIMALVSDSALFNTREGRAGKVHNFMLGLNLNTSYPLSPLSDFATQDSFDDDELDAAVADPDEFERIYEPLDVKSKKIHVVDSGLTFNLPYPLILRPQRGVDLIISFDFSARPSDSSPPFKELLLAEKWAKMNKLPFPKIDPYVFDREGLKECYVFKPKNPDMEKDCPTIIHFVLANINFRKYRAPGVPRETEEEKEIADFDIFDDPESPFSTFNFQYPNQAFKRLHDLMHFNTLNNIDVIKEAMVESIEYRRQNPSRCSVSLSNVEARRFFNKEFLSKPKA
How it was run: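 Radiometric assay in 50 mM HEPES pH 7.5 with 1 mM CaCl2, 150 mM NaCl, 0.1 mg/ml BSA and 1.7 mM DTT; compound and substrate added, reaction started with enzyme, 15 min at 37° C. Released fatty acids extracted (Dole method), counted by liquid scintillation versus no-compound control.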

[2] = system: production of prostaglandin E2 by human fibroblasts; experiment: Inhibition of Production of Prostaglandin E2 in Human Fibroblasts (IL-1 stimulation); format: cell-based; details: Fibroblast; human fibroblasts under stimulation with IL-1
Protocol: Test Example 2 Inhibition of Production of Prostaglandin E2 in Human Fibroblasts.
In order to examine the availability of the composition for inhibiting cytosolic phospholipase A2 (cPLA2) on the cells, the compounds of the present invention were tested for the effect on the production of prostaglandin E2 by human fibroblasts under the stimulation with IL-1 according to the method of J. M. Dayer et al (CACHECTIN/TUMOR NECROSIS FACTOR STIMULATES COLLAGENASE AND PROSTAGLANDIN E2 PRODUCTION BY HUMAN SYNOVIAL CELLS AND DERMAL FIBROBLASTS; J. M. Dayer, B, Beutler and A, Cerami, J. EXP. Med., 1985, 162, 2163-2168.).

O=C1NC(=O)/C(=C/c2ccc(NC(=O)[C@@H]3C[C@@H](OCc4ccccc4-c4ccccc4)CN3C(=O)c3ccccc3C(=O)c3ccc(F)cc3)s2)S1 [Compound B-8] gave an IC50 [1] of 1000 nM and an IC50 [2] of 2700 nM.

COc1cccc(-c2ccccc2C(C)C)c1O[C@@H]1C[C@@H](CNC(=O)c2ccc(/C=C3\SC(=O)NC3=O)cc2)N(C(=O)c2ccccc2C(=O)c2ccc(F)cc2)C1 [Compound A-120] gave an IC50 [1] of 29 nM and an IC50 [2] of 740 nM.

For CC(C)CN(Cc1ccccc1)[C@@H]1C[C@@H](CNC(=O)/C=C/c2ccc(/C=C3\SC(=O)NC3=O)cc2)N(C(=O)c2ccccc2C(=O)c2ccc(F)cc2)C1 [Compound M-18], the IC50 [1] was 79 nM and the IC50 [2] was 8800 nM.

O=C1NC(=O)/C(=C/c2ccc(C(=O)NC[C@@H]3C[C@@H](Oc4cccc5ccccc45)CN3C(=O)c3ccccc3C(=O)c3ccc(F)cc3)cc2)S1 [Compound A-73] was tested, and the IC50 [1] was 110 nM and the IC50 [2] was 100 nM.

CCN(Cc1ccccc1-c1ccccc1)[C@@H]1C[C@@H](CNC(=O)c2ccc(/C=C3\SC(=O)NC3=O)cc2)N(C(=O)c2ccccc2C(=O)c2ccc(F)cc2)C1 [Compound M-8] gave an IC50 [1] of 60 nM and an IC50 [2] of 800 nM.

Molecule O=C1NC(=S)S/C1=C\c1ccc(C=C[C@@H]2C[C@@H](OCc3ccccc3-c3ccccc3)CN2C(=O)c2ccccc2C(=O)c2ccc(F)cc2)cc1 [Compound E-3] has an IC50 [1] of 730 nM and an IC50 [2] of 6000 nM.

O=C1NC(=O)/C(=C/c2ccc(C(=O)NC[C@@H]3C[C@H](SCc4ccccc4)CN3C(=O)c3ccccc3C(=O)c3ccccc3)cc2)S1 [Compound I-2] showed an IC50 [1] of 1000 nM and an IC50 [2] of 660 nM.

O=C1NC(=O)/C(=C/c2ccc(C(=O)NC[C@@H]3C[C@@H](Oc4ccccc4Cc4ccccc4)CN3C(=O)c3ccccc3C(=O)c3ccc(F)cc3)cc2)S1 [Compound A-83] gave an IC50 [1] of 53 nM and an IC50 [2] of 230 nM.

O=C1NC(=O)/C(=C/c2ccc(S(=O)(=O)NC[C@@H]3C[C@@H](SCc4ccccc4-c4ccccc4)CN3C(=O)c3ccccc3C(=O)c3ccc(F)cc3)cc2)S1 [Compound I-3] showed an IC50 [1] of 55 nM and an IC50 [2] of 980 nM.

O=C1NC(=O)/C(=C/c2ccc(CCC[C@@H]3C[C@@H](OCc4ccccc4-c4ccccc4)CN3C(=O)c3ccccc3C(=O)c3ccc(F)cc3)cc2)S1 [Compound E-9] was tested, and the IC50 [1] was 1000 nM and the IC50 [2] was 6500 nM.

For O=C1NC(=O)/C(=C/c2ccc(C(=O)NC[C@@H]3C[C@@H](OCc4ccccc4-c4ccccc4)CN3C(=O)c3ccccc3C(=O)c3cccs3)cc2)S1 [Compound A-19], the IC50 [1] was 1000 nM and the IC50 [2] was 160 nM.

O=C1NC(=O)/C(=C/c2ccc(C(=O)NC[C@@H]3C[C@@H](Oc4cc(-c5ccccc5)c5ccccc5c4)CN3C(=O)c3ccccc3C(=O)c3ccc(F)cc3)cc2)S1 [Compound A-81] was tested, and the IC50 [1] was 53 nM and the IC50 [2] was 350 nM.

Molecule O=C1NC(=S)S/C1=C\c1ccc(/C=C\[C@@H]2C[C@@H](OCc3ccccc3-c3ccccc3)CN2C(=O)c2ccccc2C(=O)c2ccc(F)cc2)s1 [Compound E-5] has an IC50 [1] of 750 nM and an IC50 [2] of 3500 nM.

Molecule O=C1NC(=O)/C(=C/c2ccc(C(=O)NC[C@@H]3C[C@@H](OCc4ccccc4-c4ccccc4)CN3C(=O)c3ccccc3C(=O)c3ccc(F)cc3F)cc2)S1 [Compound A-25] has an IC50 [1] of 48 nM and an IC50 [2] of 800 nM.

Work on O=C1NC(=O)/C(=C/c2ccc(S(=O)(=O)NC[C@@H]3C[C@@H](OCc4ccccc4-c4ccccc4)CN3C(=O)c3ccccc3C(=O)c3ccc(F)cc3)cc2)S1 [Compound A-62] yielded an IC50 [1] of 260 nM and an IC50 [2] of 1100 nM.

COc1cccc(-c2cccc3ccccc23)c1O[C@@H]1C[C@@H](CNC(=O)c2ccc(/C=C3\SC(=O)NC3=O)cc2)N(C(=O)c2ccccc2C(=O)c2ccc(F)cc2)C1 [Compound A-118] showed an IC50 [1] of 8 nM and an IC50 [2] of 2200 nM.

For O=C1NC(=S)S/C1=C\c1ccc(NC(=O)[C@@H]2C[C@@H](SCc3ccccc3-c3ccccc3)CN2C(=O)c2ccccc2C(=O)c2ccc(F)cc2)s1 [Compound J-4], the IC50 [1] was 810 nM and the IC50 [2] was 5200 nM.

CC(C)CCN(Cc1ccccc1-c1ccccc1)[C@@H]1C[C@@H](CNC(=O)c2ccc(/C=C3\SC(=O)NC3=O)cc2)N(C(=O)c2ccccc2C(=O)c2ccc(F)cc2)C1 [Compound M-11] gave an IC50 [1] of 36 nM and an IC50 [2] of 970 nM.
